Structures are written as SMILES. Peptide text beside a SMILES is read from it.

This assay in a line: Inhibitory activity against Bacterial Tyrosyl tRNA Synthetase.
As for `CCOC(=O)[C@H](NC(=O)[C@@H](N)Cc1ccc(O)cc1)[C@@H]1CC[C@H](O)[C@H](O)[C@H]1O` [(R)-[(S)-2-Amino-3-(4-hydroxy-phenyl)-propionylamino]-((1S,2S,3S,4S)-2,3,4-trihydroxy-cyclohexyl)-acetic acid ethyl ester], the IC50 – broadly, the point on the concentration scale where inhibition reaches its midpoint – is over 3 µM.

As for `CCOC(=O)[C@H](NC(=O)[C@@H](N)Cc1ccc(O)cc1)[C@@H]1C=C[C@H](O)[C@H](O)[C@H]1O` [(R)-[(S)-2-Amino-3-(4-hydroxy-phenyl)-propionylamino]-((1S,4S,5S,6S)-4,5,6-trihydroxy-cyclohex-2-enyl)-acetic acid ethyl ester], the IC50 stood at 0.124 µM.

`CCOC(=O)[C@@H](NC(=O)[C@@H](N)Cc1ccc(O)cc1)[C@@H]1CC[C@H](O)[C@H](O)[C@H]1O` [(S)-[(S)-2-Amino-3-(4-hydroxy-phenyl)-propionylamino]-((1S,2S,3S,4S)-2,3,4-trihydroxy-cyclohexyl)-acetic acid ethyl ester] registered an IC50 of 0.245 µM.

`CCOC(=O)[C@@H](NC(=O)[C@@H](N)Cc1ccc(O)cc1)[C@@H]1C=C[C@H](O)[C@H](O)[C@H]1O` [(S)-[(S)-2-Amino-3-(4-hydroxy-phenyl)-propionylamino]-((1S,4S,5S,6S)-4,5,6-trihydroxy-cyclohex-2-enyl)-acetic acid ethyl ester] showed an IC50 of 0.0034 µM.

As to `COC(=O)[C@@H](NC(=O)[C@@H](N)Cc1ccc(O)cc1)C1CCCCC1` [(S)-[(S)-2-Amino-3-(4-hydroxy-phenyl)-propionylamino]-cyclohexyl-acetic acid methyl ester] (HELM PEPTIDE1{Y.[O=C([C@@H](N[*:1])C1CCCCC1)[*:2]].[CO[*:1]]}$$$$V2.0), the IC50 was over 3 µM.
